The source of these data is ChEMBL document CHEMBL1135794, “Looking for selectivity among cytochrome P450s inhibitors” (J Med Chem, 2002).

The target of data set [1] is T1, Steroid 17-alpha-hydroxylase/17,20 lyase (Homo sapiens, UniProt P05093).
T1 sequence (P05093 whole entry): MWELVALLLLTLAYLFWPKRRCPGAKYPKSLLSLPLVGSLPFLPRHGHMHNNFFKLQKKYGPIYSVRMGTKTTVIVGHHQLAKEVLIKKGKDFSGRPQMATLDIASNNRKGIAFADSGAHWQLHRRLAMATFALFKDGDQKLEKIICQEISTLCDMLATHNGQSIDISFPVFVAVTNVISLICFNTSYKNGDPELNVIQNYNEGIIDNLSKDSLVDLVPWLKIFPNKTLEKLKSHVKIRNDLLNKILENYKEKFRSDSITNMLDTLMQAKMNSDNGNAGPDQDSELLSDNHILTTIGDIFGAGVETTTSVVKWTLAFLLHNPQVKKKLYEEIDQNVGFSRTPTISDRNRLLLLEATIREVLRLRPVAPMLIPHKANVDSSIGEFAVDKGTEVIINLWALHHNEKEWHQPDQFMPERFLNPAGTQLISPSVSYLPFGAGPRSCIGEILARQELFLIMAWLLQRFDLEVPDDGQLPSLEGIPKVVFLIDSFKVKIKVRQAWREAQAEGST
Nature of the data set: Inhibition of Cytochrome P450 17.

The target of data set [2] is T1, Steroid 17-alpha-hydroxylase/17,20 lyase. Description: Inhibition of Cytochrome P450 17; Inactive.

Consider `O=c1c2ccccc2oc2c(Br)ccc(Cn3ccnc3)c12`, for which the Inhibition in data set [1] is on record as 42 nM.
On to `N#Cc1ccc(Cn2ccnc2)c2oc3ccccc3c(=O)c12`, for which, in data set [2], the IA entry is “Not Active”.
